# Assay results from ChEMBL document CHEMBL3390836, “Mannich- and LedererManasse-based analogues of the natural product S-(+)-curcuphenol as cancer proliferation and migration inhibitors” (Medchemcomm, 2012).
# Tests used:
# Format in all cases: functional
# [1] = tested on: HOP-62; assay: Cytotoxicity against human HOP62 cells assessed as cell growth at 10^-4 M after 48 hrs by SRB assay relative to control; conditions: HOP-62, 48 h, read-out: Activity
# [2] = tested on: SW-620; assay: Cytotoxicity against human SW620 cells assessed as cell growth at 10^-4 M after 48 hrs by SRB assay relative to control; conditions: SW-620, 48 h, read-out: Activity
# [3] = tested on: LOX IMVI; assay: Cytotoxicity against human LOXIMVI cells after 48 hrs by SRB assay
# [4] = Cytotoxicity against human UACC62 cells after 48 hrs by SRB assay; conditions: UACC-62, 48 h
# [5] = tested on: SF-295; assay: Cytotoxicity against human SF295 cells assessed as cell growth at 10^-4 M after 48 hrs by SRB assay relative to control; conditions: SF-295, 48 h, read-out: Activity
# [6] = tested on: LOX IMVI; assay: Cytotoxicity against human LOXIMVI cells assessed as cell growth at 10^-4 M after 48 hrs by SRB assay relative to control; conditions: read-out: Activity
# [7] = tested on: MDA-MB-231; assay: Cytotoxicity against human MDA-MB-231 cells after 48 hrs by SRB assay; conditions: MDA-MB-231, 48 h
# [8] = tested on: NCI-H226; assay: Cytotoxicity against human NCI-H226 cells assessed as cell growth at 10^-8 M after 48 hrs by SRB assay relative to control; conditions: NCI-H226, 48 h, read-out: Activity
# [9] = tested on: COLO 205; assay: Cytotoxicity against human COLO205 cells assessed as cell growth at 10^-8 M after 48 hrs by SRB assay relative to control; conditions: COLO 205, 48 h, read-out: Activity
# [10] = Cytotoxicity against human HCT15 cells assessed as cell growth at 10^-8 M after 48 hrs by SRB assay relative to control; conditions: HCT-15, 48 h, read-out: Activity
# [11] = tested on: SNB-75; assay: Cytotoxicity against human SNB75 cells assessed as cell growth at 10^-8 M after 48 hrs by SRB assay relative to control; conditions: SNB-75, 48 h, read-out: Activity
# [12] = tested on: U-251; assay: Cytotoxicity against human U251 cells assessed as cell growth at 10^-8 M after 48 hrs by SRB assay relative to control; conditions: U-251, 48 h, read-out: Activity
# [13] = tested on: LOX IMVI; assay: Cytotoxicity against human LOXIMVI cells assessed as cell growth at 10^-8 M after 48 hrs by SRB assay relative to control; conditions: read-out: Activity
# [14] = tested on: CAKI-1; assay: Cytotoxicity against human Caki1 cells assessed as cell growth at 10^-4 M after 48 hrs by SRB assay relative to control; conditions: CAKI-1, 48 h, read-out: Activity
# [15] = tested on: ACHN; assay: Cytotoxicity against human ACHN cells assessed as cell growth at 10^-8 M after 48 hrs by SRB assay relative to control; conditions: read-out: Activity
# [16] = Cytotoxicity against human Hs 578T cells assessed as cell growth at 10^-8 M after 48 hrs by SRB assay relative to control; conditions: read-out: Activity
# [17] = tested on: HL-60(TB); assay: Cytotoxicity against human HL-60(TB) cells assessed as cell growth at 10^-7 M after 48 hrs by SRB assay relative to control; conditions: HL-60, 48 h, read-out: Activity
# [18] = tested on: A549; assay: Cytotoxicity against human A549 cells assessed as cell growth at 10^-7 M after 48 hrs by SRB assay relative to control; conditions: A549, 48 h, read-out: Activity
# [19] = tested on: MDA-MB-435; assay: Cytotoxicity against human MDA-MB-435 cells assessed as cell growth at 10^-7 M after 48 hrs by SRB assay relative to control; conditions: MDA-MB-435, 48 h, read-out: Activity
# [20] = tested on: SK-MEL-2; assay: Cytotoxicity against human SK-MEL-2 cells assessed as cell growth at 10^-7 M after 48 hrs by SRB assay relative to control; conditions: SK-MEL-2, 48 h, read-out: Activity
# [21] = tested on: HCC 2998; assay: Cytotoxicity against human HCC2998 cells after 48 hrs by SRB assay; conditions: HCC 2998, 48 h; for CC50: read-out: LC50 (the source's name)
# [22] = tested on: HT-29; assay: Cytotoxicity against human HT-29 cells after 48 hrs by SRB assay; conditions: HT-29, 48 h; for CC50: read-out: LC50 (the source's name)
# [23] = tested on: SF-295; assay: Cytotoxicity against human SF295 cells after 48 hrs by SRB assay; conditions: SF-295, 48 h; for CC50: read-out: LC50 (the source's name)
# [24] = Cytotoxicity against human OVCAR4 cells assessed as cell growth at 10^-7 M after 48 hrs by SRB assay relative to control; conditions: OVCAR-4, 48 h, read-out: Activity
# [25] = Cytotoxicity against human SKOV3 cells assessed as cell growth at 10^-7 M after 48 hrs by SRB assay relative to control; conditions: SK-OV-3, 48 h, read-out: Activity
# [26] = tested on: TK-10; assay: Cytotoxicity against human TK10 cells assessed as cell growth at 10^-7 M after 48 hrs by SRB assay relative to control; conditions: TK-10, 48 h, read-out: Activity
# [27] = tested on: A549; assay: Cytotoxicity against human A549 cells assessed as cell growth at 10^-6 M after 48 hrs by SRB assay relative to control; conditions: A549, 48 h, read-out: Activity
# [28] = tested on: NCI-H460; assay: Cytotoxicity against human NCI-H460 cells assessed as cell growth at 10^-6 M after 48 hrs by SRB assay relative to control; conditions: NCI-H460, 48 h, read-out: Activity
# [29] = Cytotoxicity against human HCT116 cells assessed as cell growth at 10^-6 M after 48 hrs by SRB assay relative to control; conditions: HCT-116, 48 h, read-out: Activity
# [30] = tested on: KM12; assay: Cytotoxicity against human KM12 cells assessed as cell growth at 10^-6 M after 48 hrs by SRB assay relative to control; conditions: KM12, 48 h, read-out: Activity
# [31] = tested on: SW-620; assay: Cytotoxicity against human SW620 cells assessed as cell growth at 10^-6 M after 48 hrs by SRB assay relative to control; conditions: SW-620, 48 h, read-out: Activity
# [32] = tested on: SK-MEL-2; assay: Cytotoxicity against human SK-MEL-2 cells assessed as cell growth at 10^-6 M after 48 hrs by SRB assay relative to control; conditions: SK-MEL-2, 48 h, read-out: Activity
# [33] = Cytotoxicity against human SKOV3 cells assessed as cell growth at 10^-6 M after 48 hrs by SRB assay relative to control; conditions: SK-OV-3, 48 h, read-out: Activity
# [34] = tested on: ACHN; assay: Cytotoxicity against human ACHN cells assessed as cell growth at 10^-6 M after 48 hrs by SRB assay relative to control; conditions: read-out: Activity
# [35] = tested on: T47D; assay: Cytotoxicity against human T47D cells assessed as cell growth at 10^-6 M after 48 hrs by SRB assay relative to control; conditions: read-out: Activity
# [36] = tested on: HL-60(TB); assay: Cytotoxicity against human HL-60(TB) cells assessed as cell growth at 10^-4 M after 48 hrs by SRB assay relative to control; conditions: HL-60, 48 h, read-out: Activity
# [37] = Cytotoxicity against human EKVX cells assessed as cell growth at 10^-4 M after 48 hrs by SRB assay relative to control; conditions: read-out: Activity
smiles,measurement,setting,value
COc1ccc(CCN2COc3c([C@@H](C)CCC=C(C)C)ccc(C)c3C2)cc1OC,growth at 100 µM,[1],100%
same,growth at 100 µM,[2],-86%
same,GI50,[3],1.77 µM
same,LC50 (concentration killing 50% of cells),[3],7.96 µM
same,TGI,[3],3.75 µM
same,GI50,[4],3.48 µM
same,LC50 (concentration killing 50% of cells),[4],38.7 µM
same,TGI,[4],14.6 µM
same,growth at 100 µM,[5],-87%
same,growth at 100 µM,[6],-93%
same,GI50,[7],2.76 µM
same,LC50,[7],34.5 µM
same,TGI,[7],9.37 µM
same,growth at 0.01 µM,[8],90%
same,growth at 0.01 µM,[9],105%
same,growth at 0.01 µM,[10],85%
same,growth at 0.01 µM,[11],79%
same,growth at 0.01 µM,[12],92%
same,growth at 0.01 µM,[13],87%
same,growth at 100 µM,[14],-86%
same,growth at 0.01 µM,[15],95%
same,growth at 0.01 µM,[16],78%
same,growth at 0.1 µM,[17],99%
same,growth at 0.1 µM,[18],96%
same,growth at 0.1 µM,[19],95%
same,growth at 0.1 µM,[20],85%
same,GI50,[21],1.59 µM
same,TGI,[21],2.96 µM
same,CC50,[21],5.49 µM
same,GI50,[22],2.2 µM
same,TGI,[22],5.73 µM
same,CC50,[22],22.4 µM
same,GI50,[23],2.02 µM
same,TGI,[23],6.56 µM
same,CC50,[23],29 µM
same,growth at 0.1 µM,[24],90%
same,growth at 0.1 µM,[25],98%
same,growth at 0.1 µM,[26],79%
same,growth at 1 µM,[27],95%
same,growth at 1 µM,[28],99%
same,growth at 1 µM,[29],97%
same,growth at 1 µM,[30],93%
same,growth at 1 µM,[31],93%
same,growth at 1 µM,[32],94%
same,growth at 1 µM,[33],102%
same,growth at 1 µM,[34],85%
same,growth at 1 µM,[35],88%
same,growth at 100 µM,[36],-5%
same,growth at 100 µM,[37],-40%
CC(C)=CCC[C@H](C)c1ccc(C)c2c1OCN(CC1CCNCC1)C2,growth at 100 µM,[1],-94%
same,growth at 100 µM,[2],-87%
same,GI50,[3],5.87 µM
same,LC50 (concentration killing 50% of cells),[3],54.6 µM
same,TGI,[3],20.2 µM
same,GI50,[4],15.5 µM
same,LC50 (concentration killing 50% of cells),[4],57.6 µM
same,TGI,[4],29.9 µM
same,growth at 100 µM,[5],-67%
same,growth at 100 µM,[6],-80%
same,GI50,[7],12.5 µM
same,LC50,[7],64.1 µM
same,TGI,[7],28.3 µM
same,growth at 0.01 µM,[8],86%
same,growth at 0.01 µM,[9],109%
same,growth at 0.01 µM,[10],93%
same,growth at 0.01 µM,[11],92%
same,growth at 0.01 µM,[12],99%
same,growth at 0.01 µM,[13],100%
same,growth at 100 µM,[14],-69%
same,growth at 0.01 µM,[15],100%
same,growth at 0.01 µM,[16],98%
same,growth at 0.1 µM,[17],91%
same,growth at 0.1 µM,[18],90%
same,growth at 0.1 µM,[19],96%
same,growth at 0.1 µM,[20],111%
same,GI50,[21],3.74 µM
same,TGI,[21],12.3 µM
same,CC50,[21],37.5 µM
same,GI50,[22],3 µM
same,TGI,[22],8.38 µM
same,CC50,[22],53 µM
same,GI50,[23],15.9 µM
same,TGI,[23],34.9 µM
same,CC50,[23],76.5 µM
same,growth at 0.1 µM,[24],102%
same,growth at 0.1 µM,[25],98%
same,growth at 0.1 µM,[26],113%
same,growth at 1 µM,[27],96%
same,growth at 1 µM,[28],113%
same,growth at 1 µM,[29],104%
same,growth at 1 µM,[30],103%
same,growth at 1 µM,[31],103%
same,growth at 1 µM,[32],120%
same,growth at 1 µM,[33],100%
same,growth at 1 µM,[34],106%
same,growth at 1 µM,[35],91%
same,growth at 100 µM,[36],-73%
same,growth at 100 µM,[37],-17%
CC(C)=CCC[C@H](C)c1ccc(C)c(CNCC2CCNCC2)c1O,growth at 100 µM,[1],-74%
same,growth at 100 µM,[2],-82%
same,GI50,[3],3.85 µM
same,LC50 (concentration killing 50% of cells),[3],16.5 µM
same,TGI,[3],7.96 µM
same,GI50,[4],4.24 µM
same,LC50 (concentration killing 50% of cells),[4],16.4 µM
same,TGI,[4],8.32 µM
same,growth at 100 µM,[5],-73%
same,growth at 100 µM,[6],-79%
same,GI50,[7],3.48 µM
same,LC50,[7],19.3 µM
same,TGI,[7],8.19 µM
same,growth at 0.01 µM,[8],98%
same,growth at 0.01 µM,[9],106%
same,growth at 0.01 µM,[10],102%
same,growth at 0.01 µM,[11],90%
same,growth at 0.01 µM,[12],96%
same,growth at 0.01 µM,[13],95%
same,growth at 100 µM,[14],-29%
same,growth at 0.01 µM,[15],96%
same,growth at 0.01 µM,[16],94%
same,growth at 0.1 µM,[17],101%
same,growth at 0.1 µM,[18],98%
same,growth at 0.1 µM,[19],92%
same,growth at 0.1 µM,[20],97%
same,GI50,[21],4.13 µM
same,TGI,[21],7.73 µM
same,CC50,[21],14.4 µM
same,GI50,[22],4.51 µM
same,TGI,[22],9.45 µM
same,CC50,[22],19.8 µM
same,GI50,[23],3.31 µM
same,TGI,[23],7.53 µM
same,CC50,[23],17.1 µM
same,growth at 0.1 µM,[24],103%
same,growth at 0.1 µM,[25],93%
same,growth at 0.1 µM,[26],92%
same,growth at 1 µM,[27],98%
same,growth at 1 µM,[28],102%
same,growth at 1 µM,[29],105%
same,growth at 1 µM,[30],93%
same,growth at 1 µM,[31],99%
same,growth at 1 µM,[32],116%
same,growth at 1 µM,[33],104%
same,growth at 1 µM,[34],92%
same,growth at 1 µM,[35],84%
same,growth at 100 µM,[36],-63%
same,growth at 100 µM,[37],35%
